Laboratory results from patent US4197407A, “Prostenoic acids and esters” (American Cyanamid Company, priority 1977, dated 1980).

What was measured:
[1] = tested on: mean arterial blood pressure; assay: Hypotensive activity in anesthetized rats; format: in vivo, Male Wistar strain rats; conditions: intravenous infusion over one minute
Method: This procedure is a modification of the technique described by Pike, et al., Prostaglandins, Nobel Symposium 2, Stockholm, June, 1966, pg. 165.
Male Wistar strain rats (Royal Hart Farms) averaging approximately 250 g in weight are fastened to rat boards in a supine position by means of canvas vests and limb ties. The animals are anesthetized with a 900 mg/kg intraperitoneal dose of urethane. The left carotid artery is cannulated with polyethylene 50 tubing to measure arterial blood pressure and the left external jugular vein is cannulated with polyethylene 50 tubing for drug infusion. The animals are allowed to equilibrate for 15-30 minutes. The test compound is infused in 0.5 ml of saline, over a one minute period, at the indicated dose level, using a Harvard model 940 infusion pump and a 6 cc syringe at speed 5. Each drug dose is flushed with 0.4 ml of saline. The mean arterial blood pressure is measured before and after drug administration using a Statham model P23Db pressure transducer and a Brush model 260 recorder. The percent depression in mean arterial blood pressure and the duration of at least a 10% depression induced by representative compounds of this invention are recorded in Table C.

[2] = tested on: bronchospasms elicited by 5-hydroxytryptamine; assay: Bronchodilator activity (Konzett procedure) against 5-hydroxytryptamine; format: in vivo, guinea pigs; conditions: Cavia porcellus; three logarithmic cumulative intravenous doses; spasmogen 5-hydroxytryptamine i.v.
Method: (§1) Bronchodilator activity is determined in guinea pigs against bronchospasms elicited by intravenous injections of 5-hydroxytryptamine, histamine or acetylcholine by the Konzett procedure. [See J. Lulling, P. Lievens, F. El Sayed and J. Prignot, Arzeneimittel-Forschung, 18, 995 (1968).] In Table D, bronchodilator activity for representative compounds of this invention against one or more of the three spasmogenic agents is expressed as an ED50 determined from the results obtained with three logarithmic cumulative intravenous doses.

[3] = tested on: bronchospasms elicited by acetylcholine; assay: Bronchodilator activity (Konzett procedure) against acetylcholine; format: in vivo, guinea pigs; conditions: Cavia porcellus; three logarithmic cumulative intravenous doses; spasmogen acetylcholine i.v.
Method: as §1

[4] = tested on: collagen induced platelet aggregation; assay: Inhibition of platelet aggregation in vitro, collagen induced; format: cell-based, Human; parameters: key: (-): Inhibition; (+): No inhibition
From the text: (§2) It is well known that platelet aggregation inhibitors may be useful as anti-thrombotic drugs. Inhibition of platelet aggregation can be conveniently measured in vitro by monitoring changes in optical density and/or light transmission in platelet rich plasma upon addition of suitable aggregating agents such as adenosine diphosphate, epinephrine, thrombin or collagen. Alternatively, platelet aggregation can be measured in vitro using platelet rich plasma obtained at various time intervales from animals given inhibitors by an oral or parenteral route.
(§3) Human […] is incubated with modified Tyrode's solution in a proportion of 40-50% human […]. The test compounds are added at varying concentrations and after 5 minutes incubation, an aggregating agent such as adenosine diphosphate or collagen is added. The change in optical density (light transmission) is monitored by eye and inhibition is recorded as a (-) or lack of inhibition is recorded as a (+). Test compounds are considered active if they inhibit adenosine diphosphate or collagen induced aggregation at a concentration of 25 mcg/ml or less within 5-10 minutes.

[5] = tested on: adenosine diphosphate induced platelet aggregation; assay: Inhibition of platelet aggregation in vitro, adenosine diphosphate induced; format: cell-based, Human; parameters: key: (-): Inhibition; (+): No inhibition
From the text: as §2, §3

[6] = tested on: respiratory depression produced by arachidonate; assay: Inhibition of respiratory depression produced by arachidonate in mice, in vivo; parameters: species or system Swiss, male, albino mice; conditions: 2 hours before 50 mg/kg i.v. sodium arachidonate
Method: Swiss, male, albino mice, weighing about 20 g, are placed in control and drug groups, each with 4-6 mice and fasted. The drug mice are dosed with 50, 25, 10, or 1 mg/kg of a test compound suspended in volumes of 0.5, 0.25, or 0.10 ml of 2% starch solution. Control animals receive starch solution alone. After 2 hours all the mice are challenged with an intravenous dose of 50 mg/kg of sodium arachidonate in a volume of 0.2 ml, by tail vein. The onset of effect and duration of respiratory depression and recovery or death is quantitated. The percent inhibition of respiratory depression is computed from the mean of the drug group and the mean of the control group. Compounds giving 30% or more inhibition at 25 mg/kg or less are considered active.

[7] = tested on: bronchospasms elicited by histamine; assay: Bronchodilator activity (Konzett procedure) against histamine; format: in vivo, guinea pigs; conditions: Cavia porcellus; three logarithmic cumulative intravenous doses; spasmogen histamine i.v.
Method: as §1

CCCCC1CCCC1(O)/C=C/C1CCC(=O)C1CCCCCCC(=O)O [nat-15S,16R(and ent-15R,16S) and nat-15R,16S(and ent-15S,16R)-15-Hydroxy-9-oxo-15,16-trimethylene-13-trans-prostenoic Acid]
Duration in Minutes of at Least 10% Depression ([1]; dose 2.0 mg/kg): 4 min
Percent Depression of Mean Arterial Blood Pressure ([1]; dose 2.0 mg/kg): -38%
ED50 [2]: 0.32 µg/kg

CCCCC1CCCC1(O)/C=C/C1CCC(=O)C1CCCCCCC(=O)OCC [Ethyl nat-15S,16R(and ent-15R,16S)-15-hydroxy-9-oxo-15,16-trimethylene-13-trans-prostenoate and Ethyl nat-15R,16S(and ent-15S,16R)-15-hydroxy-9-oxo-15,16-trimethylene-13-trans-prostenoate]
Duration in Minutes of at Least 10% Depression ([1]; dose 1.9 mg/kg): 7 min
Percent Depression of Mean Arterial Blood Pressure ([1]; dose 1.9 mg/kg): -18%

CCCC[C@H]1CCC[C@@]1(O)/C=C/[C@H]1CCC(=O)[C@@H]1CCCCCCC(=O)O (relative stereo) [nat-15S,16S(and ent-15R,16R)-15-Hydroxy-9-oxo-15,16-trimethylene-13-trans-prosenoic Acid]
ED50 [2]: 0.112 µg/kg
ED50 [3]: 0.413 µg/kg

CCCC[C@@H]1CCC[C@]1(O)/C=C/[C@H]1CCC(=O)[C@@H]1CCCCCCC(=O)OCC (relative stereo) [Ethyl nat-15R,16R(and ent-15S,16S)-15-hydroxy-9-oxo-15,16-trimethylene-13-trans-prostenoate]
Duration in Minutes of at Least 10% Depression ([1]; dose 4.0 mg/kg): 4 min
Percent Depression of Mean Arterial Blood Pressure ([1]; dose 4.0 mg/kg): -16%

O=C(O)CCCCCC[C@H]1C(=O)CC[C@@H]1/C=C/C1(O)CCCCC1 (relative stereo) [nat(and ent)-15-Hydroxy-9-oxo-15,16-tetramethylene-17,18,19,20-tetranor-13-trans-prostenoic Acid]
Duration in Minutes of at Least 10% Depression ([1]; dose 1.8 mg/kg): 4 min
Percent Depression of Mean Arterial Blood Pressure ([1]; dose 1.8 mg/kg): -9%
Inhibition of Platelet Aggregation - In Vitro, Collagen ([4]; drug concentration 0.25 μg/ml): (+)
Inhibition of Platelet Aggregation - In Vitro, Collagen ([4]; drug concentration 2.5 μg/ml): (+)
Inhibition of Platelet Aggregation - In Vitro, Collagen ([4]; drug concentration 25 μg/ml): (-)
Inhibition of Platelet Aggregation - In Vitro, Collagen ([4]; drug concentration 250 μg/ml): (-)
Inhibition of Platelet Aggregation - In Vitro, Adenosine Diphosphate ([5]; drug concentration 0.25 μg/ml): (+)
Inhibition of Platelet Aggregation - In Vitro, Adenosine Diphosphate ([5]; drug concentration 2.5 μg/ml): (+)
Inhibition of Platelet Aggregation - In Vitro, Adenosine Diphosphate ([5]; drug concentration 25 μg/ml): (-)
Inhibition of Platelet Aggregation - In Vitro, Adenosine Diphosphate ([5]; drug concentration 250 μg/ml): (-)
Inhibition of Respiratory Depression - In Vivo, Percent Inhibition ([6]; 1 mg/kg): 33%

CCCC[C@H]1CCC[C@@]1(O)/C=C/[C@H]1CCC(=O)[C@@H]1CCCCCCC(=O)OCC (relative stereo) [Ethyl nat-15S,16S(and ent-15R,16R)-15-hydroxy-9-oxo-15,16-trimethylene-13-trans-prostenoate]
Duration in Minutes of at Least 10% Depression ([1]; dose 1.6 mg/kg): 5 min
Percent Depression of Mean Arterial Blood Pressure ([1]; dose 1.6 mg/kg): -43%

O=C(O)CCC/C=C\C[C@H]1C(=O)C=C[C@@H]1/C=C/C1(O)CCCCC1 (relative stereo) [nat(and ent)-15-Hydroxy-9-oxo-15,16-tetramethylene-17,18,19,20-tetranor-13-trans,5-cis,10-prostatrienoic acid]
Inhibition of Platelet Aggregation - In Vitro, Collagen ([4]; drug concentration 25 μg/ml): (+)
Inhibition of Platelet Aggregation - In Vitro, Collagen ([4]; drug concentration 250 μg/ml): (-)
ED50 [7]: 0.632 µg/kg
ED50 [2]: > 3.2 µg/kg
Inhibition of Platelet Aggregation - In Vitro, Adenosine Diphosphate ([5]; drug concentration 25 μg/ml): (+)
Inhibition of Platelet Aggregation - In Vitro, Adenosine Diphosphate ([5]; drug concentration 250 μg/ml): (-)
ED50 [3]: > 3.2 µg/kg

O=C(O)CCCCCC[C@H]1C(=O)C[C@@H](O)[C@@H]1/C=C/C1(O)CCCCC1 (relative stereo) [nat(and ent)-11α,15-Dihydroxy-9-oxo-15,16-tetramethylene-17,18,19,20-tetranor-13-trans-prostenoic Acid]
Duration in Minutes of at Least 10% Depression ([1]; dose 2.1 mg/kg): 16 min
Percent Depression of Mean Arterial Blood Pressure ([1]; dose 2.1 mg/kg): -39%
Inhibition of Platelet Aggregation - In Vitro, Collagen ([4]; drug concentration 0.25 μg/ml): (+)
Inhibition of Platelet Aggregation - In Vitro, Collagen ([4]; drug concentration 2.5 μg/ml): (-)
Inhibition of Platelet Aggregation - In Vitro, Collagen ([4]; drug concentration 25 μg/ml): (-)
Inhibition of Platelet Aggregation - In Vitro, Collagen ([4]; drug concentration 250 μg/ml): (-)
Inhibition of Platelet Aggregation - In Vitro, Adenosine Diphosphate ([5]; drug concentration 0.25 μg/ml): (+)
Inhibition of Platelet Aggregation - In Vitro, Adenosine Diphosphate ([5]; drug concentration 2.5 μg/ml): (-)
Inhibition of Platelet Aggregation - In Vitro, Adenosine Diphosphate ([5]; drug concentration 25 μg/ml): (-)
Inhibition of Platelet Aggregation - In Vitro, Adenosine Diphosphate ([5]; drug concentration 250 μg/ml): (-)

O=C(O)CCC/C=C\C[C@H]1C(=O)C[C@@H](O)[C@@H]1/C=C/C1(O)CCCCC1 (relative stereo) [nat(and ent)-11α,15-Dihydroxy-9-oxo-15,16-tetramethylene-17,18,19,20-tetranor-5-cis,13-trans-prostadienoic Acid]
Duration in Minutes of at Least 10% Depression ([1]; dose 2.2 mg/kg): 23 min
Percent Depression of Mean Arterial Blood Pressure ([1]; dose 2.2 mg/kg): -31%
Inhibition of Platelet Aggregation - In Vitro, Collagen ([4]; drug concentration 0.25 μg/ml): (+)
Inhibition of Platelet Aggregation - In Vitro, Collagen ([4]; drug concentration 2.5 μg/ml): (-)
Inhibition of Platelet Aggregation - In Vitro, Collagen ([4]; drug concentration 25 μg/ml): (-)
Inhibition of Platelet Aggregation - In Vitro, Collagen ([4]; drug concentration 250 μg/ml): (-)
Inhibition of Platelet Aggregation - In Vitro, Adenosine Diphosphate ([5]; drug concentration 0.25 μg/ml): (+)
Inhibition of Platelet Aggregation - In Vitro, Adenosine Diphosphate ([5]; drug concentration 2.5 μg/ml): (-)
Inhibition of Platelet Aggregation - In Vitro, Adenosine Diphosphate ([5]; drug concentration 25 μg/ml): (-)
Inhibition of Platelet Aggregation - In Vitro, Adenosine Diphosphate ([5]; drug concentration 250 μg/ml): (-)
Inhibition of Respiratory Depression - In Vivo, Percent Inhibition ([6]; 10 mg/kg): 6%
Inhibition of Respiratory Depression - In Vivo, Percent Inhibition ([6]; 25 mg/kg): 14%
ED50 [3]: 0.115 µg/kg

CCCCC1CCCC1(O)/C=C/C1C(O)CC(=O)C1C/C=C\CCCC(=O)O [nat-15S,16R(and ent-15R,16S) and nat-15R,16S-(and ent-15S,16R)-11α,15-Dihydroxy-9-oxo-15,16-trimethylene-13-trans-5-cis-prostadienoic Acid]
Duration in Minutes of at Least 10% Depression ([1]; dose 1.7 mg/kg): > 10 min
Percent Depression of Mean Arterial Blood Pressure ([1]; dose 1.7 mg/kg): -47%
Inhibition of Platelet Aggregation - In Vitro, Collagen ([4]; drug concentration 250 μg/ml): (+)
Inhibition of Platelet Aggregation - In Vitro, Adenosine Diphosphate ([5]; drug concentration 25 μg/ml): (+)
Inhibition of Platelet Aggregation - In Vitro, Adenosine Diphosphate ([5]; drug concentration 250 μg/ml): (-)

O=C(O)CCCCCC[C@H]1C(=O)CC[C@@H]1/C=C/C1=CCCCC1 (relative stereo) [nat(and ent)-9-oxo-15,16-Tetramethylene-17,18,19,20-tetranor-15,13-trans-prostadienoic Acid]
Inhibition of Platelet Aggregation - In Vitro, Collagen ([4]; drug concentration 25 μg/ml): (-)
Inhibition of Platelet Aggregation - In Vitro, Collagen ([4]; drug concentration 250 μg/ml): (-)
Inhibition of Platelet Aggregation - In Vitro, Adenosine Diphosphate ([5]; drug concentration 25 μg/ml): (-)
Inhibition of Platelet Aggregation - In Vitro, Adenosine Diphosphate ([5]; drug concentration 250 μg/ml): (-)
Inhibition of Respiratory Depression - In Vivo, Percent Inhibition ([6]; 25 mg/kg): 28%
